Results taken from patent US11685741B2, “Fluorescent probes” (University of Massachusetts, priority 2017, dated 2023).

Assay: Binding studies of sensor with Fe3+ (Job's plot, titration, EDTA reversibility)
Experimental: Job's method and UV-vis spectra were applied to study the binding stoichiometry between Rh-PK and Fe^3+ and monitored by the absorbance at 555 nm. […] The binding constant of this complex was calculated following a method reported previously (G. E. Tumambac, et al., Tetrahedron 2004, 60, 11293-11297), using absorption values at […] by the equations described below, and was determined to be 1.54×10^7 […].
The equations below was used to calculate the binding constants with stoichiometry of 1:1. L+S↔LS where L=sensor, S=Fe3+ and LS=sensor-Fe^3+ complex. The apparent binding constant is given by
[formula] Fe is the fraction of L that formed a complex, [LS]e is concentration at equilibrium, [L]0 is the initial concentration. Au, Am, and Ac are the absorbances of solutions of L (before any Fe^3+ was added), during the titration and at saturation, respectively. The concentration of free Fe^3+ at equilibrium, [S]e, is found with the following identity. [S]e=[S]o−[LS]e=[S]o−Fc[L]o The apparent binding constant K can then be calculated from
Reversibility experiments were carried out by adding EDTA to the complex in ACN/Tris-HCl buffer (10 mM, pH 7.3, v/v 3:1). […]
The stoichiometry of RhHPA-Fe^3+ was measured using Job's plot and mole ratio plots methods. B. Valeur, Molecular Fluorescence: Principles and Applications, Wiley-VCH. […] To determine the binding constant of chemosensor, a fluorescence titration of different amounts of Fe^3+ into the acetonitrile solution of sensor was carried out. […] The determination of the binding constant of RhHPA was calculated using the following equation: F−Fmin=[…](Fmax−Fmin)/Kd where F is the observed fluorescence, Fmax is the maximum fluorescence for the RhHPA-Fe^3+ complex at concentration of the equal reacted between sensor and metal cation, Fmin is the fluorescence intensity for occurring RhHPA-Fe^3+.
Absorption enhancement observation at 558 nm was plotted against the molar value of the [Fe^3+]/[Fe^3+]+RhHPA and [Fe^3+]/RhHPA. […] Binding constant of fluorescent sensor “RhHPA” was calculated and it was found as K=1.27×10^7 M^−1. […]

binding constant (1:1 Fe^3+-Rh-PK complex, from absorption titration): 1.54e+07 M⁻¹ | apparent binding constant (1:1 sensor-Fe^3+ complex, ACN/Tris-HCl buffer pH 7.3): 1.54e+07 M⁻¹
SMILES: CCN(CC)c1ccc2c(c1)Oc1cc(N(CC)CC)ccc1C21c2ccccc2C(=O)N1CC/N=C(\C)c1cccc(C(C)=O)n1 [Rh-PK, (E)-2-(2-((1-(6-acetylpyridin-2-yl)ethylidene)amino)ethyl)-3′,6′-bis(diethylamino)spiro[isoindoline-1,9′-xanthen]-3-one]
